Data published in patent publication US10493060B2, “Spirocyclic compounds” (ZENO ROYALTIES & MILESTONES, LLC, priority 2015, dated 2019).

Columns and labels:
[1] = target: Activated ERK1 (Homo sapiens (Human), UniProt P27361); test: Active ERK1 kinase assay (Mobility Shift Assay); assay type: biochemical
Procedure: (§1) Activated ERK1 and ERK2 activity was determined in a Mobility Shift Assay (MSA) format as follows: Compound and kinase solution were prepared with assay buffer (20 mM HEPES, 0.01% Triton X-100, 2 mM DTT, pH7.5) and mixed and incubated in for 30 mins at rt. ERK1 & ERK2 were then activated by the addition of Fl-Substrate, ATP and metal solution and incubated for 1 h at rt. After 1 h, the reaction was terminated by the addition of […] of Termination Buffer (QuickScout Screening Assist MSA; Carna Biosciences) to the well. The reaction mixture was applied to LabChip™ system (PerkinElmer), and the product and substrate peptide peaks were separated, analyzed and quantitated. The kinase reaction is evaluated by the product ratio calculated from peak heights of product (P) and substrate (S) peptides (P/(P+S)).

[2] = target: Activated ERK2 (Homo sapiens (Human), UniProt P28482); test: Active ERK2 kinase assay (Mobility Shift Assay); assay type: biochemical
Activated ERK2, sequence (P28482 whole entry): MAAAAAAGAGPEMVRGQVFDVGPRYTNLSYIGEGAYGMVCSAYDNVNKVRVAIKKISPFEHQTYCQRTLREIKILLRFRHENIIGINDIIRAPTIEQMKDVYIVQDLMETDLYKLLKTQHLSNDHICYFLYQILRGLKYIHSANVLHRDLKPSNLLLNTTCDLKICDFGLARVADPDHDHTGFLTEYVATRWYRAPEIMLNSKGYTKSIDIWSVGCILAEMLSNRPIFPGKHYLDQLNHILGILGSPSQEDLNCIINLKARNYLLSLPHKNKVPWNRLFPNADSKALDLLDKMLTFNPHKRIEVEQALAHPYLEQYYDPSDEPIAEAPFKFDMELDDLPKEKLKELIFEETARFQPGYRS
Procedure: as §1

Activated ERK1, sequence (P27361 whole entry): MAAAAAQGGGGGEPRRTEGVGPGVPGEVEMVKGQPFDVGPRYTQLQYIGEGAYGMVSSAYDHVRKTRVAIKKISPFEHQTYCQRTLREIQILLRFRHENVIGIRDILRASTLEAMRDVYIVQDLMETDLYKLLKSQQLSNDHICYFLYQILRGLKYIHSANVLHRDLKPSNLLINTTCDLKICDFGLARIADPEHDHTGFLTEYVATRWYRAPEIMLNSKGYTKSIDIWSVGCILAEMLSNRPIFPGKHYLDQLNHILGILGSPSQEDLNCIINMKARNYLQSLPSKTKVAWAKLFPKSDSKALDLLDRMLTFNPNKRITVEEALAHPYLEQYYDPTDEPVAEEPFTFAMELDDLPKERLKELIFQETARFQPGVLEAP

SMILES | IC50 [1] | IC50 [2]
CC(C)Oc1ccc(-c2n[nH]c3ccc(N4CC[C@]5(CCN(CC(=O)N6CCC(c7ccc(-c8ncn(C)n8)cc7)CC6)C5)C4=O)cc23)cn1 [Example 16, (S)-2-(3-(6-Isopropoxypyridin-3-yl)-1H-indazol-5-yl)-7-(2-(4-(4-(1-methyl-1H-1,2,4-triazol-3-yl)phenyl)piperidin-1-yl)-2-oxoethyl)-2,7-diazaspiro[4.4]nonan-1-one] | ≤ 0.05 µM | ≤ 0.05 µM
Cn1cnc(-c2ccc(C3=CCN(C(=O)CN4CC[C@]5(CCN(c6ccc7[nH]nc(C8CC8)c7c6)C5=O)C4)CC3)cc2)n1 [Example 45, (S)-2-(3-Cyclopropyl-1H-indazol-5-yl)-7-(2-(4-(4-(1-methyl-1H-1,2,4-triazol-3-yl)phenyl)-3,6-dihydropyridin-1(2H)-yl)-2-oxoethyl)-2,7-diazaspiro[4.4]nonan-1-one] |  | ≤ 0.05 µM
CC(C)Oc1ccc(-c2n[nH]c3ccc(N4CCC5(CCN(CC(=O)N6CCN(c7ccc(-c8ncn(C)n8)cc7)CC6)C5)C4=O)cc23)cn1 (stereo not drawn) [Example 3, 2-(3-(6-Isopropoxypyridin-3-yl)-1H-indazol-5-yl)-7-(2-(4-(4-(1-methyl-1H-1,2,4-triazol-3-yl)phenyl)piperazin-1-yl)-2-oxoethyl)-2,7-diazaspiro[4.4]nonan-1-one] | ≤ 0.05 µM | ≤ 0.05 µM
Cn1cnc(-c2ccc(C3=CCN(C(=O)CN4CC[C@]5(CCN(c6ccc7[nH]nc(C#N)c7c6)C5=O)C4)CC3)cc2)n1 [Example 51, (S)-5-(7-(2-(4-(4-(1-Methyl-1H-1,2,4-triazol-3-yl)phenyl)-3,6-dihydropyridin-1(2H)-yl)-2-oxoethyl)-1-oxo-2,7-diazaspiro[4.4]nonan-2-yl)-1H-indazole-3-carbonitrile] |  | ≤ 0.05 µM
Cc1ccc(-c2n[nH]c3ccc(N4CC[C@]5(CCN(CC(=O)N6CC=C(c7ccc(-c8ncn(C)n8)cc7)CC6)C5)C4=O)cc23)cn1 [Example 57, (S)-7-(2-(4-(4-(1-Methyl-1H-1,2,4-triazol-3-yl)phenyl)-3,6-dihydropyridin-1(2H)-yl)-2-oxoethyl)-2-(3-(6-methylpyridin-3-yl)-1H-indazol-5-yl)-2,7-diazaspiro[4.4]nonan-1-one] |  | ≤ 0.05 µM
CCNc1n[nH]c2ccc(N3CC[C@]4(CCN(CC(=O)N5CC=C(c6ccc(-c7ncn(C)n7)cc6)CC5)C4)C3=O)cc12 [Example 53, (S)-2-(3-(Ethylamino)-1H-indazol-5-yl)-7-(2-(4-(4-(1-methyl-1H-1,2,4-triazol-3-yl)phenyl)-3,6-dihydropyridin-1(2H)-yl)-2-oxoethyl)-2,7-diazaspiro[4.4]nonan-1-one] |  | 0.05 to 0.25 µM
CC(C)Oc1ccc(-c2n[nH]c3ccc(N4CCC5(CCN(Cc6ccccc6)C5)C4=O)cc23)cn1 (stereo not drawn) [Example 21, 7-Benzyl-2-(3-(6-isopropoxypyridin-3-yl)-1H-indazol-5-yl)-2,7-diazaspiro[4.4]nonan-1-one] | ≥ 0.25 µM | ≥ 0.25 µM
Cn1cnc(-c2ccc(C3=CCN(C(=O)CN4CC[C@]5(CCN(c6ccc7[nH]nc(C(F)F)c7c6)C5=O)C4)CC3)cc2)n1 [Example 52, (S)-2-(3-(Difluoromethyl)-1H-indazol-5-yl)-7-(2-(4-(4-(1-methyl-1H-1,2,4-triazol-3-yl)phenyl)-3,6-dihydropyridin-1(2H)-yl)-2-oxoethyl)-2,7-diazaspiro[4.4]nonan-1-one] |  | ≤ 0.05 µM
CC(C)Oc1ccc(-c2n[nH]c3ccc(N4CCC5(CCN(CC(=O)N6CCN(c7ccc(-c8ncn(C)n8)cc7)CC6)C5)C4)cc23)cn1 (stereo not drawn) [Example 2, 2-(7-(3-(6-Isopropoxypyridin-3-yl)-1H-indazol-5-yl)-2,7-diazaspiro[4.4]nonan-2-yl)-1-(4-(4-(1-methyl-1H-1,2,4-triazol-3-yl)phenyl)piperazin-1-yl)ethan-1-one] | ≥ 0.25 µM | ≥ 0.25 µM
CC(C)Oc1ccc(-c2n[nH]c3ccc(N4CCC5(CCN(CC(=O)N6CC=C(c7ccc(-c8ncn(C)n8)cc7)CC6)C5)C4)cc23)cn1 (stereo not drawn) [Example 4, 2-(7-(3-(6-Isopropoxypyridin-3-yl)-1H-indazol-5-yl)-2,7-diazaspiro[4.4]nonan-2-yl)-1-(4-(4-(1-methyl-1H-1,2,4-triazol-3-yl)phenyl)-3,6-dihydropyridin-1(2H)-yl)ethan-1-one] | ≥ 0.25 µM | ≥ 0.25 µM
Cn1cnc(-c2ccc(C3=CCN(C(=O)CN4CC[C@]5(CCN(c6ccc7[nH]nc(-c8ccc(S(C)(=O)=O)cc8)c7c6)C5=O)C4)CC3)cc2)n1 [Example 58, (S)-7-(2-(4-(4-(1-Methyl-1H-1,2,4-triazol-3-yl)phenyl)-3,6-dihydropyridin-1(2H)-yl)-2-oxoethyl)-2-(3-(4-(methylsulfonyl)phenyl)-1H-indazol-5-yl)-2,7-diazaspiro[4.4]nonan-1-one] |  | ≤ 0.05 µM
Cn1cc(-c2n[nH]c3ccc(N4CC[C@]5(CCN(CC(=O)N6CC=C(c7ccc(-c8ncn(C)n8)cc7)CC6)C5)C4=O)cc23)cn1 [Example 48, (S)-7-(2-(4-(4-(1-Methyl-1H-1,2,4-triazol-3-yl)phenyl)-3,6-dihydropyridin-1 (2H)-yl)-2-oxoethyl)-2-(3-(1-methyl-1H-pyrazol-4-yl)-1H-indazol-5-yl)-2,7-diazaspiro[4.4]nonan-1-one] |  | ≤ 0.05 µM
Cc1noc(-c2ccc(C3=CCN(C(=O)CN4CC[C@]5(CCN(c6ccc7[nH]nc(-c8ccc(OC(C)C)nc8)c7c6)C5=O)C4)CC3)cc2)n1 [Example 54, (S)-2-(3-(6-Isopropoxypyridin-3-yl)-1H-indazol-5-yl)-7-(2-(4-(4-(3-methyl-1,2,4-oxadiazol-5-yl)phenyl)-3,6-dihydropyridin-1(2H)-yl)-2-oxoethyl)-2,7-diazaspiro[4.4]nonan-1-one] |  | ≤ 0.05 µM
Cn1cnc(-c2ccc(N3CCN(C(=O)CN4CC[C@]5(CCN(c6ccc7[nH]nc(C8CC8)c7c6)C5=O)C4)CC3)cc2)n1 [Example 44, (S)-2-(3-Cyclopropyl-1H-indazol-5-yl)-7-(2-(4-(4-(1-methyl-1H-1,2,4-triazol-3-yl)phenyl)piperazin-1-yl)-2-oxoethyl)-2,7-diazaspiro[4.4]nonan-1-one] |  | 0.05 to 0.25 µM

More lines, now with the values ahead:

IC50 [1] | IC50 [2] | SMILES
≥ 0.25 µM | 0.05 to 0.25 µM | CC(C)Oc1ccc(-c2n[nH]c3ccc(N4CCCC5(CCN(CC(=O)N6CC=C(c7ccc(-c8ncn(C)n8)cc7)CC6)C5)C4=O)cc23)cn1 (stereo not drawn) [Example 5, 7-(3-(6-Isopropoxypyridin-3-yl)-1H-indazol-5-yl)-2-(2-(4-(4-(1-methyl-1H-1,2,4-triazol-3-yl)phenyl)-3,6-dihydropyridin-1 (2H)-yl)-2-oxoethyl)-2,7-diazaspiro[4.5]decan-6-one]
 | ≤ 0.05 µM | CC(C)Oc1ccc(-c2n[nH]c3ccc(N4CC[C@]5(CCN(CC(=O)N6CC=C(c7ccc(-c8ncn(C9CC9)n8)cc7)CC6)C5)C4=O)cc23)cn1 [Example 50, (S)-7-(2-(4-(4-(1-Cyclopropyl-1H-1,2,4-triazol-3-yl)phenyl)-3,6-dihydropyridin-1(2H)-yl)-2-oxoethyl)-2-(3-(6-isopropoxypyridin-3-yl)-1H-indazol-5-yl)-2,7-diazaspiro[4.4]nonan-1-one]
 | ≤ 0.05 µM | CC(C)Oc1ccc(-c2n[nH]c3ccc(N4CC[C@]5(CCN(CC(=O)N6CC=C(c7ccc(-c8ncn(CCO)n8)cc7)CC6)C5)C4=O)cc23)cn1 [Example 47, (S)-7-(2-(4-(4-(1-(2-Hydroxyethyl)-1H-1,2,4-triazol-3-yl)phenyl)-3,6-dihydropyridin-1(2H)-yl)-2-oxoethyl)-2-(3-(6-isopropoxypyridin-3-yl)-1H-indazol-5-yl)-2,7-diazaspiro[4.4]nonan-1-one]
 | ≤ 0.05 µM | CC(C)Oc1ccc(-c2n[nH]c3ccc(N4CC[C@]5(CCN(CC(=O)N6CC=C(c7ccc(-c8ncn(C)n8)cc7F)CC6)C5)C4=O)cc23)cn1 [Example 55, (S)-7-(2-(4-(2-Fluoro-4-(1-methyl-1H-1,2,4-triazol-3-yl)phenyl)-3,6-dihydropyridin-1(2H)-yl)-2-oxoethyl)-2-(3-(6-isopropoxypyridin-3-yl)-1H-indazol-5-yl)-2,7-diazaspiro[4.4]nonan-1-one]
 | ≤ 0.05 µM | CCn1cnc(-c2ccc(C3=CCN(C(=O)CN4CC[C@]5(CCN(c6ccc7[nH]nc(-c8ccc(OC(C)C)nc8)c7c6)C5=O)C4)CC3)cc2)n1 [Example 46, (S)-7-(2-(4-(4-(1-Ethyl-1H-1,2,4-triazol-3-yl)phenyl)-3,6-dihydropyridin-1(2H)-yl)-2-oxoethyl)-2-(3-(6-isopropoxypyridin-3-yl)-1H-indazol-5-yl)-2,7-diazaspiro[4.4]nonan-1-one]
 | ≤ 0.05 µM | CC(C)Oc1ccc(-c2n[nH]c3ccc(N4CC[C@]5(CCN(CC(=O)N6CC=C(c7ccc(-c8ncn(C)n8)c(F)c7)CC6)C5)C4=O)cc23)cn1 [Example 56, (S)-7-(2-(4-(3-Fluoro-4-(1-methyl-1H-1,2,4-triazol-3-yl)phenyl)-3,6-dihydropyridin-1(2H)-yl)-2-oxoethyl)-2-(3-(6-isopropoxypyridin-3-yl)-1H-indazol-5-yl)-2,7-diazaspiro[4.4]nonan-1-one]
 | ≤ 0.05 µM | COCCn1cnc(-c2ccc(C3=CCN(C(=O)CN4CC[C@]5(CCN(c6ccc7[nH]nc(-c8ccc(OC(C)C)nc8)c7c6)C5=O)C4)CC3)cc2)n1 [Example 49, (S)-2-(3-(6-Isopropoxypyridin-3-yl)-1H-indazol-5-yl)-7-(2-(4-(4-(1-(2-methoxyethyl)-1H-1,2,4-triazol-3-yl)phenyl)-3,6-dihydropyridin-1(2H)-yl)-2-oxoethyl)-2,7-diazaspiro[4.4]nonan-1-one]
